Results as given in US9255100B2 (BAYER INTELLECTUAL PROPERTY GMBH, priority 2010, dated 2016).
Several values for one entry are separate records, joined by “and”; a condition that tells them apart may be missing. Identical values can stand only once.

biological target: T1, N-terminally GST-tagged human full length recombinant Mps-1 kinase (Homo sapiens, UniProt P33981); assay: Mps-1 kinase assay (TR-FRET); assay type: biochemical; details: Mps1 IC50 [nM], 10 μM ATP, 1 μM peptide substrate, 60 min at 22° C.
T1 construct: N-terminally GST-tagged human full length recombinant Mps-1 kinase; purchased Invitrogen, Karslruhe, Germany PV4071
T1 sequence (P33981 1-857): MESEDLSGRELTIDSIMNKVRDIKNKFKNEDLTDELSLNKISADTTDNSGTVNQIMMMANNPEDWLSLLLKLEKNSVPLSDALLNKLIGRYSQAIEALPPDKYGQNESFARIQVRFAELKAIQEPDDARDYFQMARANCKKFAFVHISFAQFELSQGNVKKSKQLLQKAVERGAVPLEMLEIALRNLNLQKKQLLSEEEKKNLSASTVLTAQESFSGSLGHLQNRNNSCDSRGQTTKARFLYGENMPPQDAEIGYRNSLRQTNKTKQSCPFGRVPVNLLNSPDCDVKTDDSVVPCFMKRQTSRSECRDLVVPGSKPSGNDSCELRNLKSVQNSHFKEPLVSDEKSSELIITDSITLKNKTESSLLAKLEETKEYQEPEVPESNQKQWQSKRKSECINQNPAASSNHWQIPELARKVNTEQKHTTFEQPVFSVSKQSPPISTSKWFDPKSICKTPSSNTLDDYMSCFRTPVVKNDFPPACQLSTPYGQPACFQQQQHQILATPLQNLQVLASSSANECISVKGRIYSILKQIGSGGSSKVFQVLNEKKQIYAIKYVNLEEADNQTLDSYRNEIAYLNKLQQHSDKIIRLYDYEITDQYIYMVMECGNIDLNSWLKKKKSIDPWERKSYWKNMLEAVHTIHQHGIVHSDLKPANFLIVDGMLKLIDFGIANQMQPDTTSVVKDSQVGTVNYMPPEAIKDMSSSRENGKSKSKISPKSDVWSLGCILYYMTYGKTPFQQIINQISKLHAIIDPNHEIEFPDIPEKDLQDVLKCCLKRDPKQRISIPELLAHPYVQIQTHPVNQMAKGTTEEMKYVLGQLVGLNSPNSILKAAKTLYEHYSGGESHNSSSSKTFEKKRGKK
In short: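 Inhibition of Mps-1 (N-terminal GST fusion, full length) toward a biotinylated peptide is read as Eu-to-XLent TR-FRET. Enzyme level, around 1 nM final, follows lot activity.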

Going from Cc1cc(-c2cnc3c(NCCC(F)(F)F)cc(Nc4cccc(Cl)c4)nn23)ccc1C(=O)NC1CC1 [Example 379, 4-{6-[(3-chlorophenyl)amino]-8-[(3,3,3-trifluoropropyl)amino]imidazo[1,2-b]pyridazin-3-yl}-N-cyclopropyl-2-methylbenzamide] to Cc1cc(-c2cnc3c(NCCC(F)(F)F)cc(Nc4ccccc4O)nn23)ccc1C(=O)NC1CC1 [Example 399, N-cyclopropyl-4-{6-[(2-hydroxyphenyl)amino]-8-[(3,3,3-trifluoropropyl)amino]imidazo[1,2-b]pyridazin-3-yl}-2-methylbenzamide], the IC50 falls from 0.2 nM to 0.1 nM (2-fold).

Going from Cc1cc(-c2cnc3c(NCCC(F)(F)F)cc(Nc4cccc(F)c4F)nn23)ccc1C(=O)NC1CC1 [Example 380, N-cyclopropyl-4-{6-[(2,3-difluorophenyl)amino]-8-[(3,3,3-trifluoropropyl)amino]imidazo[1,2-b]pyridazin-3-yl}-2-methylbenzamide] to COc1ccccc1Nc1cc(NCCC(F)(F)F)c2ncc(-c3ccc(C(=O)NC4CC4)c(C)c3)n2n1 [Example 388, N-cyclopropyl-4-{6-[(2-methoxyphenyl)amino]-8-[(3,3,3-trifluoropropyl)amino]imidazo[1,2-b]pyridazin-3-yl}-2-methylbenzamide], the IC50 rises from 0.1 nM to 0.4 nM (4-fold). The first is the more potent here.

First: Cc1cc(-c2cnc3c(NCCC(F)(F)F)cc(Oc4cccc(OC(C)C)c4)nn23)ccc1C(=O)NC1CC1 [Example 381, N-cyclopropyl-2-methyl-4-{6-[3-(propan-2-yloxy)phenoxy]-8-[(3,3,3-trifluoropropyl)amino]imidazo[1,2-b]pyridazin-3-yl}benzamide]
Second: Cc1cc(-c2cnc3c(NCCC(F)(F)F)cc(Oc4ccccc4N)nn23)ccc1C(=O)NC1CC1 [Example 395, 4-{6-(2-aminophenoxy)-8-[(3,3,3-trifluoropropyl)amino]imidazo[1,2-b]pyridazin-3-yl}-N-cyclopropyl-2-methylbenzamide]
The IC50 of the first is 2-fold higher: 0.6 nM for the first, 0.3 nM for the second. The second is the more potent here.

First: Cc1cc(Nc2cc(NCC(C)(C)O)c3ncc(-c4ccc(C(=O)NC5CC5)c(C)c4)n3n2)ccc1F [Example 382, N-cyclopropyl-4-{6-[(4-fluoro-3-methylphenyl)amino]-8-[(2-hydroxy-2-methylpropyl)amino]imidazo[1,2-b]pyridazin-3-yl}-2-methylbenzamide]
Second: COc1cc(Nc2cc(NCC(C)(C)O)c3ncc(-c4ccc(C(=O)NC5CC5)c(C)c4)n3n2)ccc1F [Example 400, N-cyclopropyl-4-{6-[(4-fluoro-3-methoxyphenyl)amino]-8-[(2-hydroxy-2-methylpropyl)amino]imidazo[1,2-b]pyridazin-3-yl}-2-methylbenzamide]
The IC50 of the first is 2.6-fold lower: 1.2 nM for the first, 3.1 nM for the second.

Cc1ccc(F)c(Nc2cc(NCC(C)(C)O)c3ncc(-c4ccc(C(=O)NC5CC5)c(C)c4)n3n2)c1 [Example 383, N-cyclopropyl-4-{6-[(2-fluoro-5-methylphenyl)amino]-8-[(2-hydroxy-2-methylpropyl)amino]imidazo[1,2-b]pyridazin-3-yl}-2-methylbenzamide] and Cc1ccc(Cl)cc1Nc1cc(NCC(C)(C)O)c2ncc(-c3ccc(C(=O)NC4CC4)c(C)c3)n2n1 [Example 404, 4-{6-[(5-chloro-2-methylphenyl)amino]-8-[(2-hydroxy-2-methylpropyl)amino]imidazo[1,2-b]pyridazin-3-yl}-N-cyclopropyl-2-methylbenzamide] are the same in IC50: 0.3 nM for the first, 0.3 nM for the second.

Compared with Cc1cc(-c2cnc3c(NCC(C)(C)O)cc(Nc4ccccc4F)nn23)ccc1C(=O)NC1CC1 [Example 384, N-cyclopropyl-4-{6-[(2-fluorophenyl)amino]-8-[(2-hydroxy-2-methylpropyl)amino]imidazo[1,2-b]pyridazin-3-yl}-2-methylbenzamide], COc1ccccc1Nc1cc(NCC(C)(C)O)c2ncc(-c3ccc(C(=O)NC4CC4)c(C)c3)n2n1 [Example 402, N-cyclopropyl-4-{8-[(2-hydroxy-2-methylpropyl)amino]-6-[(2-methoxyphenyl)amino]imidazo[1,2-b]pyridazin-3-yl}-2-methylbenzamide] is 8.5-fold higher in IC50: 0.4 nM for the first, 3.4 nM for the second. The first is the more potent here.

Cc1cc(-c2cnc3c(NCC(C)(C)O)cc(Nc4cccc(C(C)C)c4)nn23)ccc1C(=O)NC1CC1 [Example 385, N-cyclopropyl-4-{8-[(2-hydroxy-2-methylpropyl)amino]-6-[(3-isopropylphenyl)amino]imidazo[1,2-b]pyridazin-3-yl}-2-methylbenzamide] and COc1cccc(Nc2cc(NCC(C)(C)O)c3ncc(-c4ccc(C(=O)NC5CC5)c(C)c4)n3n2)c1 [Example 403, N-cyclopropyl-4-{8-[(2-hydroxy-2-methylpropyl)amino]-6-[(3-methoxyphenyl)amino]imidazo[1,2-b]pyridazin-3-yl}-2-methylbenzamide] are within 1.5-fold of each other in IC50: 0.9 nM for the first, 1 nM for the second.

Compared with Cc1cc(-c2cnc3c(NCC(C)(C)O)cc(Nc4ccc(CCO)cc4)nn23)ccc1C(=O)NC1CC1 [Example 386, N-cyclopropyl-4-(6-{[4-(2-hydroxyethyl)phenyl]amino}-8-[(2-hydroxy-2-methylpropyl)amino]imidazo[1,2-b]pyridazin-3-yl)-2-methylbenzamide], Cc1cc(-c2cnc3c(NCC(C)(C)O)cc(Nc4ccc(F)nc4)nn23)ccc1C(=O)NC1CC1 [Example 406, N-cyclopropyl-4-{6-[(6-fluoropyridin-3-yl)amino]-8-[(2-hydroxy-2-methylpropyl)amino]imidazo[1,2-b]pyridazin-3-yl}-2-methylbenzamide] is 3.8-fold lower in IC50: 1.5 nM for the first, 0.4 nM for the second. The second is the more potent here.

Cc1cc(-c2cnc3c(NCCC(F)(F)F)cc(Sc4cccc(F)c4C)nn23)ccc1C(=O)NC1CC1 [Example 387, N-cyclopropyl-4-{6-[(3-fluoro-2-methylphenyl)sulfanyl]-8-[(3,3,3-trifluoropropyl)amino]imidazo[1,2-b]pyridazin-3-yl}-2-methylbenzamide] and Cc1cc(-c2cnc3c(NCCC(F)(F)F)cc(Sc4ccc(Cl)cc4CO)nn23)ccc1C(=O)NC1CC1 [Example 392, 4-(6-{[4-chloro-2-(hydroxymethyl)phenyl]sulfanyl}-8-[(3,3,3-trifluoropropyl)amino]imidazo[1,2-b]pyridazin-3-yl)-N-cyclopropyl-2-methylbenzamide] are within 1.5-fold of each other in IC50: 0.3 nM for the first, 0.4 nM for the second.

First: CNc1ccccc1Oc1cc(NCCC(F)(F)F)c2ncc(-c3ccc(C(=O)NC4CC4)c(C)c3)n2n1 [Example 389, N-cyclopropyl-2-methyl-4-{6-[2-(methylamino)phenoxy]-8-[(3,3,3-trifluoropropyl)amino]imidazo[1,2-b]pyridazin-3-yl}benzamide]
Second: COc1cccc(Nc2cc(NCC(C)(C)O)c3ncc(-c4ccc(C(=O)NC5CC5)c(C)c4)n3n2)c1C [Example 398, N-cyclopropyl-4-{8-[(2-hydroxy-2-methylpropyl)amino]-6-[(3-methoxy-2-methylphenyl)amino]imidazo[1,2-b]pyridazin-3-yl}-2-methylbenzamide]
The IC50 of the first is 4-fold lower: 0.1 nM for the first, 0.4 nM for the second.

Compared with Cc1cc(-c2cnc3c(NCC(C)(C)O)cc(Sc4ccc(Cl)cc4CO)nn23)ccc1C(=O)NC1CC1 [Example 393, 4-(6-{[4-chloro-2-(hydroxymethyl)phenyl]sulfanyl}-8-[(2-hydroxy-2-methylpropyl)amino]imidazo[1,2-b]pyridazin-3-yl)-N-cyclopropyl-2-methylbenzamide], Cc1cc(-c2cnc3c(NCC(C)(C)O)cc(Nc4ccc(Cl)c(F)c4)nn23)ccc1C(=O)NC1CC1 [Example 401, 4-{6-[(4-chloro-3-fluorophenyl)amino]-8-[(2-hydroxy-2-methylpropyl)amino]imidazo[1,2-b]pyridazin-3-yl}-N-cyclopropyl-2-methylbenzamide] is 2.3-fold lower in IC50: 2.3 nM for the first, 1 nM for the second.

Cc1cc(F)cc(Nc2cc(NCC(C)(C)O)c3ncc(-c4ccc(C(=O)NC5CC5)c(C)c4)n3n2)c1 [Example 394, N-cyclopropyl-4-{6-[(3-fluoro-5-methylphenyl)amino]-8-[(2-hydroxy-2-methylpropyl)amino]imidazo[1,2-b]pyridazin-3-yl}-2-methylbenzamide] and Cc1cc(-c2cnc3c(NCC(C)(C)O)cc(Nc4ccc(F)cc4Cl)nn23)ccc1C(=O)NC1CC1 [Example 405, 4-{6-[(2-chloro-4-fluorophenyl)amino]-8-[(2-hydroxy-2-methylpropyl)amino]imidazo[1,2-b]pyridazin-3-yl}-N-cyclopropyl-2-methylbenzamide] are the same in IC50: 0.2 nM for the first, 0.2 nM for the second.

Cc1cc(-c2cnc3c(NCCC(F)(F)F)cc(Nc4ccc(F)cc4O)nn23)ccc1C(=O)NC1CC1 [Example 396, N-cyclopropyl-4-{6-[(4-fluoro-2-hydroxyphenyl)amino]-8-[(3,3,3-trifluoropropyl)amino]imidazo[1,2-b]pyridazin-3-yl}-2-methylbenzamide] was tested, and the IC50 was 0.1 nM and 0.3 nM.
